In US9695155B2, “Herbicidal substituted pyrimidinyloxy benzene compounds” (E. I. DU PONT DE NEMOURS AND COMPANY, priority 2013, dated 2017):

Experiments:
large (Lg) crabgrass = test: Test A preemergence; assay type: in vivo, Digitaria sanguinalis; details: Digitaria sanguinalis, pre-emergence, 240 h
Procedure, shortened: (§1)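 Greenhouse pot test, loam/sand soil. Formulation: non-phytotoxic solvent mix plus surfactant. Pre: directed spray onto soil after sowing. Post: plants at 1–2 leaf, 2–10 cm. Rated visually vs untreated controls at ~10 d, 0 (no effect) to 100 (complete control).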

velvetleaf [1] = test: Test A preemergence; assay type: in vivo, Abutilon theophrasti
Procedure, shortened: as §1

corn [2] = test: Test A preemergence; assay type: in vivo, Zea mays; details: Zea mays, pre-emergence, 240 h
Procedure, shortened: as §1

barnyardgrass = test: Test A postemergence; assay type: in vivo, Echinochloa crus-galli; details: Echinochloa crus-galli, post-emergence, 240 h
Procedure, shortened: as §1

giant foxtail [3] = test: Test A postemergence; assay type: in vivo, Setaria faberii; details: Setaria faberi, post-emergence, 240 h, 0 to 100 scale where 0 is no effect and 100 is complete control, read-out: Plant response rating, Foxtail, Giant
Procedure, shortened: as §1

morningglory [4] = test: Test A postemergence; assay type: in vivo, Ipomoea spp.; details: Ipomoea, post-emergence, 240 h, 0 to 100 scale where 0 is no effect and 100 is complete control, read-out: Plant response rating, Morningglory
Procedure, shortened: as §1

corn [5] = test: Test A postemergence; assay type: in vivo, Zea mays; details: Zea mays, post-emergence, 240 h
Procedure, shortened: as §1

Heteranthera limosa = test: Test B flooded paddy test; assay type: in vivo; details: Heteranthera limosa, Flood, 250 g ai/ha; 0 to 100 scale where 0 is no effect and 100 is complete control; read-out: Plant response rating, Ducksalad
Procedure, shortened: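 Compound added straight to paddy water, with pots kept flooded 3 cm above soil, on plants grown to the 2-leaf stage. Visual scoring 0-100 (100 = complete control) against untreated controls after 13 to 15 greenhouse days.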

corn [6] = test: Test C postemergence; assay type: in vivo, Zea mays; details: Zea mays, post-emergence
Procedure, shortened: (§2)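 Visual ratings on a 0–100 scale (100 = complete control) were made versus untreated controls after 13–15 greenhouse days. Chemicals in a surfactant-containing non-phytotoxic solvent were applied either preemergence to seeds in loam–sand soil or postemergence to 1- to 4-leaf plants 2–18 cm tall.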

giant foxtail [7] = test: Test C postemergence; assay type: in vivo, Setaria faberii; details: Setaria faberi, post-emergence
Procedure, shortened: as §2

johnsongrass = test: Test C postemergence; assay type: in vivo, Sorghum halepense; details: Sorghum halepense, post-emergence
Procedure, shortened: as §2

morningglory [8] = test: Test C postemergence; assay type: in vivo, Ipomoea coccinea; details: Ipomoea, post-emergence
Procedure, shortened: as §2

pigweed = test: Test C postemergence; assay type: in vivo, Amaranthus retroflexus; details: Amaranthus retroflexus, post-emergence
Procedure, shortened: as §2

oilseed rape = test: Test C postemergence; assay type: in vivo, Brassica napus; details: Brassica napus, post-emergence
Procedure, shortened: as §2

waterhemp = test: Test C postemergence; assay type: in vivo, Amaranthus rudis; details: Amaranthus tuberculatus, post-emergence
Procedure, shortened: as §2

velvetleaf [9] = test: Test C postemergence; assay type: in vivo, Abutilon theophrasti; details: Abutilon theophrasti, post-emergence
Procedure, shortened: as §2

[10] = 125 g ai/ha, 0 to 100 scale where 0 is no effect and 100 is complete control

N#Cc1cccc(Oc2ncc(F)cn2)c1-n1cc(C(F)(F)F)cn1 [Compound 79, 3-[(5-fluoro-2-pyrimidinyl)oxy]-2-[4-(trifluoromethyl)-1H-pyrazol-1-yl]benzonitrile]
pest or weed control at 125 g/ha (large (Lg) crabgrass; 125 g ai/ha, 0 to 100 scale where 0 is no effect and 100 is complete control, read-out: Plant response rating, Crabgrass, Large): 100%
pest or weed control at 500 g/ha (large (Lg) crabgrass; 500 g ai/ha, 0 to 100 scale, 0 no effect, 100 complete control, approx. 10 days, read-out: Crabgrass, Large plant response rating): 100%
Plant response rating, Velvetleaf (velvetleaf [1]; [10]): 100
pest or weed control at 500 g/ha (velvetleaf [1]; Abutilon theophrasti, pre-emergence, 240 h, 500 g ai/ha, 0 to 100 scale, 0 no effect, 100 complete control, approx. 10 days, read-out: Velvetleaf plant response rating): 100%
Corn plant response rating (crop injury, 0 = no effect, 100 = complete kill) at 125 g/ha (corn [2]; [10]): 80%
plant injury at 500 g/ha (corn [2]; 500 g ai/ha, 0 to 100 scale, 0 no effect, 100 complete control, approx. 10 days, read-out: Corn plant response rating): 100%
pest or weed control at 125 g/ha (barnyardgrass; 125 g ai/ha, 0 to 100 scale where 0 is no effect and 100 is complete control, read-out: Plant response rating, Barnyardgrass): 100%
pest or weed control at 500 g/ha (barnyardgrass; 500 g ai/ha, 0 to 100 scale, 0 no effect, 100 complete control, read-out: Plant response rating Barnyardgrass): 100%
pest or weed control at 125 g/ha (giant foxtail [3]; 125 g ai/ha): 100%
pest or weed control at 500 g/ha (giant foxtail [3]; 500 g ai/ha): 100%
pest or weed control at 125 g/ha (morningglory [4]; 125 g ai/ha): 100%
pest or weed control at 500 g/ha (morningglory [4]; 500 g ai/ha): 100%
Corn plant response rating (crop injury, 0 = no effect, 100 = complete kill) at 125 g/ha (corn [5]; [10]): 80%
plant injury at 500 g/ha (corn [5]; 500 g ai/ha, 0 to 100 scale, 0 no effect, 100 complete control, read-out: Plant response rating Corn): 100%
pest or weed control at 250 g/ha (Heteranthera limosa): 95%
plant injury at 125 g/ha (corn [6]; 125 g ai/ha, postemergence, read-out: Plant response rating (0 to 100), Corn): 15%
plant injury at 250 g/ha (corn [6]; 250 g ai/ha, postemergence, read-out: Plant response rating (0 to 100), Corn): 35%
Corn plant response rating (crop injury, 0 = no effect, 100 = complete kill) at 31 g/ha (corn [6]; Postemergence, 31 g ai/ha, scale 0 to 100 (0 no effect, 100 complete control), 13 to 15 days): 5%
Corn plant response rating (crop injury, 0 = no effect, 100 = complete kill) at 62 g/ha (corn [6]; Postemergence, 62 g ai/ha, scale 0 to 100 (0 no effect, 100 complete control)): 5%
pest or weed control at 125 g/ha (giant foxtail [7]; 125 g ai/ha, postemergence, read-out: Plant response rating (0 to 100), Foxtail, Giant): 20%
pest or weed control at 250 g/ha (giant foxtail [7]; 250 g ai/ha, postemergence, read-out: Plant response rating (0 to 100), Foxtail, Giant): 65%
pest or weed control at 31 g/ha (giant foxtail [7]; Postemergence, 31 g ai/ha, scale 0 to 100 (0 no effect, 100 complete control), 13 to 15 days, read-out: Plant response rating, Foxtail, Giant): 10%
pest or weed control at 62 g/ha (giant foxtail [7]; Postemergence, 62 g ai/ha, scale 0 to 100 (0 no effect, 100 complete control), read-out: Plant response rating, Foxtail, Giant): 10%
pest or weed control at 125 g/ha (johnsongrass; 125 g ai/ha, postemergence, read-out: Plant response rating (0 to 100), Johnsongrass): 40%
pest or weed control at 250 g/ha (johnsongrass; 250 g ai/ha, postemergence, read-out: Plant response rating (0 to 100), Johnsongrass): 85%
pest or weed control at 31 g/ha (johnsongrass; Postemergence, 31 g ai/ha, scale 0 to 100 (0 no effect, 100 complete control), 13 to 15 days, read-out: Plant response rating, Johnsongrass): 5%
pest or weed control at 62 g/ha (johnsongrass; Postemergence, 62 g ai/ha, scale 0 to 100 (0 no effect, 100 complete control), read-out: Plant response rating, Johnsongrass): 10%
pest or weed control at 125 g/ha (morningglory [8]; 125 g ai/ha, postemergence, read-out: Plant response rating (0 to 100), Morningglory): 95%
pest or weed control at 250 g/ha (morningglory [8]; 250 g ai/ha, postemergence, read-out: Plant response rating (0 to 100), Morningglory): 98%
pest or weed control at 31 g/ha (morningglory [8]; Postemergence, 31 g ai/ha, scale 0 to 100 (0 no effect, 100 complete control), 13 to 15 days, read-out: Plant response rating, Morningglory): 70%
pest or weed control at 62 g/ha (morningglory [8]; Postemergence, 62 g ai/ha, scale 0 to 100 (0 no effect, 100 complete control), read-out: Plant response rating, Morningglory): 95%
pest or weed control at 125 g/ha (pigweed; 125 g ai/ha, postemergence, read-out: Plant response rating (0 to 100), Pigweed): 95%
pest or weed control at 250 g/ha (pigweed; 250 g ai/ha, postemergence, read-out: Plant response rating (0 to 100), Pigweed): 98%
pest or weed control at 31 g/ha (pigweed; Postemergence, 31 g ai/ha, scale 0 to 100 (0 no effect, 100 complete control), 13 to 15 days, read-out: Plant response rating, Pigweed): 75%
pest or weed control at 62 g/ha (pigweed; Postemergence, 62 g ai/ha, scale 0 to 100 (0 no effect, 100 complete control), read-out: Plant response rating, Pigweed): 95%
plant injury at 125 g/ha (oilseed rape; 125 g ai/ha, postemergence, read-out: Plant response rating (0 to 100), Oilseed Rape): 50%
plant injury at 250 g/ha (oilseed rape; 250 g ai/ha, postemergence, read-out: Plant response rating (0 to 100), Oilseed Rape): 90%
plant injury at 31 g/ha (oilseed rape; Postemergence, 31 g ai/ha, scale 0 to 100 (0 no effect, 100 complete control), 13 to 15 days, read-out: Plant response rating, Oilseed Rape): 30%
plant injury at 62 g/ha (oilseed rape; Postemergence, 62 g ai/ha, scale 0 to 100 (0 no effect, 100 complete control), read-out: Plant response rating, Oilseed Rape): 50%
pest or weed control at 125 g/ha (waterhemp; 125 g ai/ha, postemergence, read-out: Plant response rating (0 to 100), Waterhemp): 90%
pest or weed control at 250 g/ha (waterhemp; 250 g ai/ha, postemergence, read-out: Plant response rating (0 to 100), Waterhemp): 100%
pest or weed control at 31 g/ha (waterhemp; Postemergence, 31 g ai/ha, scale 0 to 100 (0 no effect, 100 complete control), 13 to 15 days, read-out: Plant response rating, Waterhemp): 75%
pest or weed control at 62 g/ha (waterhemp; Postemergence, 62 g ai/ha, scale 0 to 100 (0 no effect, 100 complete control), read-out: Plant response rating, Waterhemp): 80%
pest or weed control at 125 g/ha (velvetleaf [9]; 125 g ai/ha, postemergence, read-out: Plant response rating (0 to 100), Velvetleaf): 70%
pest or weed control at 250 g/ha (velvetleaf [9]; 250 g ai/ha, postemergence, read-out: Plant response rating (0 to 100), Velvetleaf): 90%
pest or weed control at 31 g/ha (velvetleaf [9]; Postemergence, 31 g ai/ha, scale 0 to 100 (0 no effect, 100 complete control), 13 to 15 days, read-out: Plant response rating, Velvetleaf): 55%
pest or weed control at 62 g/ha (velvetleaf [9]; Postemergence, 62 g ai/ha, scale 0 to 100 (0 no effect, 100 complete control), read-out: Plant response rating, Velvetleaf): 70%
